The text below walks through data of patent publication US10294207B2, “Pyrazole derivatives as TNIK, IKKϵ and TBK1 inhibitor and pharmaceutical composition comprising same” (GREEN CROSS CORPORATION, priority 2015, dated 2019).

Assay [1] addresses T1, IKKε (Homo sapiens, UniProt Q14164).
T1 construct: purchased Invitrogen PR8031B
T1 sequence (Q14164 1-716): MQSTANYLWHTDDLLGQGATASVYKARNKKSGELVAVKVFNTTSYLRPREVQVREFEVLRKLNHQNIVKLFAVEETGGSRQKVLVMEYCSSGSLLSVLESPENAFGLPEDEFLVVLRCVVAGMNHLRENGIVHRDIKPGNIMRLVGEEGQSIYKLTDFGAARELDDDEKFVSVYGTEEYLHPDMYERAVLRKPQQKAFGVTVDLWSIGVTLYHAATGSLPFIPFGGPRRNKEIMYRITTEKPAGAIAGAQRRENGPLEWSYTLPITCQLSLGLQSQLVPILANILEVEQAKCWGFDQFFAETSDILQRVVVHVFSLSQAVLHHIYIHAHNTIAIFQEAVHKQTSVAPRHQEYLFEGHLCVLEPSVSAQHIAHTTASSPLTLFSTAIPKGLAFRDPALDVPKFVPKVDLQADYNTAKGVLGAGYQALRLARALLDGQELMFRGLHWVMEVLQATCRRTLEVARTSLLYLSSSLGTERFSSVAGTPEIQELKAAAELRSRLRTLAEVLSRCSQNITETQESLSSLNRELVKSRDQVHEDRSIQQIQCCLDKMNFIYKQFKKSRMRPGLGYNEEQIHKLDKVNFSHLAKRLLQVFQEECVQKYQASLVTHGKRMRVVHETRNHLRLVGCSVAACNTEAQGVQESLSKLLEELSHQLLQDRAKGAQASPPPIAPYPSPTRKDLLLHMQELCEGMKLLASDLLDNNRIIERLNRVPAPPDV
As to the kind of experiment: IKKε inhibition, ADP-Glo Kinase Assay. As to conditions: luminometer. The class given is biochemical. In a few lines: (§1)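 Each recombinant kinase enzyme system was run per the manufacturer's protocol in 40 mM Tris pH 7.5, 20 mM MgCl2 and 0.1 mg/mL BSA. Kinase activity was detected as ADP formation by ADP-Glo luminescence.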
A general note: In ADP-Glo the light output rises with the ADP produced.

Assay [2] deals with T2, TBK1 (Homo sapiens, UniProt Q9UHD2).
T2 construct: purchased Promega V3991
T2 sequence (Q9UHD2 1-729): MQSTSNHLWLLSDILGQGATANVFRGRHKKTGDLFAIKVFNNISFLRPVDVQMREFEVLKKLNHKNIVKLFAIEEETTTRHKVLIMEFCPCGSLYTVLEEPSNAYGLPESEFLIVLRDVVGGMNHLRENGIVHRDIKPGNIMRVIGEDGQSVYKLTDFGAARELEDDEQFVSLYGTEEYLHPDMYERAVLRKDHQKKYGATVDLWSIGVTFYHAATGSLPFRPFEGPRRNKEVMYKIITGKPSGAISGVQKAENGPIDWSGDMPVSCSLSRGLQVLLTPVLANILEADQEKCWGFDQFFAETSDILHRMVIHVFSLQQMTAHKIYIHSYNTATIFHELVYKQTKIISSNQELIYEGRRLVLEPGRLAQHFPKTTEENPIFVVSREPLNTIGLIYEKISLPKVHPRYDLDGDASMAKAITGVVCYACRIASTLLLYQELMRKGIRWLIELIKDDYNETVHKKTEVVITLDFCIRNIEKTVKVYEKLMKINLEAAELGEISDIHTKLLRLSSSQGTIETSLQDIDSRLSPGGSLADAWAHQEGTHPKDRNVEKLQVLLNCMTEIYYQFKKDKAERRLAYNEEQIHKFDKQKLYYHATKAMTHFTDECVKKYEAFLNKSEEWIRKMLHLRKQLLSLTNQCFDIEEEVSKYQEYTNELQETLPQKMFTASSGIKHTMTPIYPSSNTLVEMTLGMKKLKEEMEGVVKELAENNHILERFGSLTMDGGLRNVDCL
As to the kind of experiment: TBK1 inhibition, ADP-Glo Kinase Assay. It counts as biochemical. As to conditions: luminometer. The method, boiled down:
as §1

The term IC50 denotes the concentration at which inhibition is half-maximal. The low end stands for greater potency, the high end for weaker potency.

Take `CCC[C@H](NC(=O)c1ccc2[nH]nc(NC(=O)c3ccc(N4CCN(C)CC4)cc3)c2c1)c1ccccc1` [Example 193, (S)-3-(4-(4-Methylpiperazin-1-yl)benzamido)-N-(1-phenylbutyl)-1H-indazole-5-carboxamide]: the IC50 in assay [1] came out at 4.47 µM; in assay [2] it was 0.8 µM.
For `Cc1cc(CNC(=O)c2ccc3[nH]nc(NC(=O)c4ccc(N5CCOCC5)cc4)c3c2)ccn1` [Example 69, N-((2-Methylpyridin-4-yl)methyl)-3-(4-morpholinobenzamido)-1H-indazole-5-carboxamide] the same measures were 2.72 µM and 0.38 µM.
On the same counts, the results for `O=C(NCc1cccs1)c1ccc2[nH]nc(NC(=O)c3ccc(N4CCNCC4)cc3)c2c1` [Example 171, 3-(4-(Piperazin-1-yl)benzamido)-N-(thiophen-2-ylmethyl)-1H-indazole-5-carboxamide] are 0.0038 µM and 0.0003 µM.
Turning to `CN1CCN(c2ccc(C(=O)Nc3n[nH]c4ccc(C(=O)NCc5cccs5)cc34)cc2)CC1` [Example 149, 3-(4-(4-methylpiperazin-1-yl)benzamido)-N-(thiophen-2-ylmethyl)-1H-indazole-5-carboxamide], the IC50 in assay [1] is 0.032 µM; in assay [2], 0.0075 µM.
For the molecule `O=C(NCc1ccc(C(F)(F)F)cc1)c1ccc2[nH]nc(NC(=O)c3ccc(F)cc3)c2c1` [Example 21, 3-(4-Fluorobenzamido)-N-(4-(trifluoromethyl)benzyl)-1H-indazole-5-carboxamide], the IC50 in assay [1] and in assay [2] was over 10 µM each time.
In the case of `C[C@H]1CN(c2ccc(C(=O)Nc3n[nH]c4ccc(C(=O)NC5(c6ccccc6)CC5)cc34)cc2)CCN1` [Example 76, (S)-3-(4-(3-Methylpiperazin-1-yl)benzamido)-N-(1-phenylcyclopropyl)-1H-indazole-5-carboxamide], the IC50 in assay [1] turned out to be 0.016 µM; in assay [2], 0.0046 µM.
As for `O=C(Nc1n[nH]c2ccc(C(=O)NC3(c4ccccc4)CC3)cc12)c1ccc(N2CCOCC2)cc1` [Example 67, 3-(4-Morpholinobenzamido)-N-(1-phenylcyclopropyl)-1H-indazole-5-carboxamide], the IC50 was 0.005 µM in assay [1] and 0.003 µM in assay [2].
On the same counts, the results for `Cc1cc(C(=O)Nc2n[nH]c3ccc(C(=O)NCc4cccs4)cc23)ccc1N1CCN(C)CC1` [Example 79, 3-(3-Methyl-4-(4-methylpiperazin-1-yl)benzamido)-N-(thiophen-2-ylmethyl)-1H-indazole-5-carboxamide] are 0.22 µM and 0.015 µM.
On to `CC(NC(=O)c1ccc2[nH]nc(NC(=O)c3ccc(N4CCN(C)CC4)cc3)c2c1)c1nccs1` (stereo not drawn) [Example 82, 3-(4-(4-Methylpiperazin-1-yl)benzamido)-N-(1-(thiazol-2-yl)ethyl)-1H-indazole-5-carboxamide], for which the IC50 in assay [1] was 0.074 µM; in assay [2], 0.014 µM.
For `CN1CCN(c2ccc(C(=O)Nc3n[nH]c4ccc(C(=O)NC(c5cccnc5)C5CC5)cc34)cc2)CC1` (stereo not drawn) [Example 143, N-(Cyclopropyl(pyridin-3-yl)methyl)-3-(4-(4-methylpiperazin-1-yl)benzamido)-1H-indazole-5-carboxamide], the figures for the IC50 in assay [1] and in assay [2] were 0.12 µM and 0.071 µM, respectively.
Regarding `C[C@@H]1CN(c2ccc(C(=O)Nc3n[nH]c4ccc(C(=O)NC5(c6ccccc6)CC5)cc34)cc2)CCN1` [Example 77, (R)-3-(4-(3-Methylpiperazin-1-yl)benzamido)-N-(1-phenylcyclopropyl)-1H-indazole-5-carboxamide], the IC50 in assay [1] is 0.018 µM; in assay [2] it was 0.0048 µM.
On to `CNCCN(C)c1ccc(C(=O)Nc2n[nH]c3ccc(C(=O)NCc4cccs4)cc23)cc1` [Example 155, 3-(4-(Methyl(2-(methylamino)ethyl)amino)benzamido)-N-(thiophen-2-ylmethyl)-1H-indazole-5-carboxamide], for which the concentration for half-maximal inhibition (IC50) amounted to 0.094 µM in assay [1] and 0.0064 µM in assay [2].
`CCC(C)(NC(=O)c1ccc2[nH]nc(NC(=O)c3ccc(N4CCN(C)CC4)cc3)c2c1)c1cccs1` (stereo not drawn) [Example 131, 3-(4-(4-methylpiperazin-1-yl)benzamido)-N-(2-(thiophen-2-yl)butan-2-yl)-1H-indazole-5-carboxamide]: the IC50 was found to be 0.14 µM in assay [1] and 0.03 µM in assay [2].
Regarding `COCCCNc1ccc(C(=O)Nc2n[nH]c3ccc(C(=O)NCc4cccs4)cc23)cc1` [Example 151, 3-(4-((3-Methoxypropyl)amino)benzamido)-N-(thiophen-2-ylmethyl)-1H-indazole-5-carboxamide], the values for the IC50 in assay [1] and in assay [2] were 0.052 µM and 0.0079 µM, respectively.
For the molecule `CC(NC(=O)c1ccc2[nH]nc(NC(=O)c3ccc(N4CCN(C)CC4)cc3)c2c1)c1cncs1` (stereo not drawn) [Example 83, 3-(4-(4-Methylpiperazin-1-yl)benzamido)-N-(1-(thiazol-5-yl)ethyl)-1H-indazole-5-carboxamide], the IC50 in assay [1] was determined as 0.047 µM; in assay [2], 0.011 µM.
`CC(NC(=O)c1ccc2[nH]nc(NC(=O)c3ccc(N4CCOCC4)cc3)c2c1)c1ccncc1` (stereo not drawn) [Example 132, 3-(4-Morpholinobenzamido)-N-(1-(pyridin-4-yl)ethyl)-1H-indazole-5-carboxamide]: the IC50 in assay [1] is 0.043 µM; in assay [2], 0.023 µM.
Turning to `CC(NC(=O)c1ccc2[nH]nc(NC(=O)c3ccc(N4C[C@@H](C)N[C@@H](C)C4)cc3)c2c1)c1ccccc1` (stereo partly drawn) [Example 186, 3-(4-((3R,5S)-3,5-Dimethylpiperazin-1-yl)benzamido)-N-(1-phenylethyl)-1H-indazole-5-carboxamide], the half-maximal inhibitory concentration (IC50) in assay [1] is 0.012 µM; in assay [2], 0.0027 µM.
For `CN1CCN(c2ccc(C(=O)Nc3n[nH]c4ccc(C(=O)NCc5ccon5)cc34)cc2)CC1` [Example 173, N-(Isoxazol-3-ylmethyl)-3-(4-(4-methylpiperazin-1-yl)benzamido)-1H-indazole-5-carboxamide], the concentration for half-maximal inhibition (IC50) in assay [1] was determined as 0.26 µM; in assay [2], 0.033 µM.
`CN1CCC(Nc2ccc(C(=O)Nc3n[nH]c4ccc(C(=O)NCc5cccs5)cc34)cc2)CC1` [Example 213]: the IC50 in assay [1] was determined as 0.069 µM; in assay [2], 0.0044 µM.
Consider `CC(NC(=O)c1ccc2[nH]nc(NC(=O)c3ccc(N4CCN(C)CC4)cc3)c2c1)c1ccco1` (stereo not drawn) [Example 81, N-(1-(Furan-2-yl)ethyl)-3-(4-(4-methylpiperazin-1-yl)benzamido)-1H-indazole-5-carboxamide], for which the values for the IC50 in assay [1] and in assay [2] were 0.021 µM and 0.0039 µM, respectively.
Regarding `CN1CCN(c2ccc(C(=O)Nc3n[nH]c4ccc(C(=O)NCc5ccc(Cl)s5)cc34)cc2)CC1` [Example 146, N-((5-chlorothiophen-2-yl)methyl)-3-(4-(4-methylpiperazin-1-yl)benzamido)-1H-indazole-5-carboxamide], the IC50 stood at 0.065 µM in assay [1] and 0.019 µM in assay [2].
Consider `O=C(Nc1n[nH]c2ccc(C(=O)NC(c3cccs3)C3CC3)cc12)c1ccc(N2CCOCC2)cc1` (stereo not drawn) [Example 122, N-(Cyclopropyl(thiophen-2-yl)methyl)-3-(4-morpholinobenzamido)-1H-indazole-5-carboxamide], for which the IC50 in assay [1] came out at 0.025 µM; in assay [2], 0.0044 µM.
On the same counts, the results for `CCCCNC(=O)c1ccc2[nH]nc(NC(=O)c3ccc(F)cc3)c2c1` [Example 24, N-Butyl-3-(4-fluorobenzamido)-1H-indazole-5-carboxamide] are 2.46 µM and 0.66 µM.
Regarding `CC1CN(c2ccc(C(=O)Nc3n[nH]c4ccc(C(=O)NC(C)c5ccccc5)cc34)cc2)CC(C)O1` (stereo not drawn) [Example 183, 3-(4-(2,6-Dimethylmorpholino)benzamido)-N-(1-phenylethyl)-1H-indazole-5-carboxamide], the results for the IC50 in assay [1] and in assay [2] were 0.018 µM and 0.0043 µM, respectively.
